# EPA's ToxValDB 9.5 (doi:10.2903/j.efsa.2020.5986)
# Columns and labels:
# Daphnia magna = conditions: chronic/long-term; duration: 21 days; reproduction
# Oncorhynchus mykiss = conditions: acute; duration: 96 hours; mortality
# Apis mellifera = conditions: acute, mortality
# Tagia sp. = conditions: chronic/long-term; mortality
# Danio rerio = conditions: subchronic; duration: 30 days; growth
# Hypoaspis aculeifer = conditions: acute; duration: 14 days; mortality
# Rattus norvegicus = conditions: acute; oral; mortality
# Colinus virginianus = conditions: oral
compound,measurement,setting,value
CC(C)=CCC/C(C)=C/CC/C(C)=C/CO [Farnesol],NOEC,Daphnia magna,3 mg/L
same,LC50,Oncorhynchus mykiss,> 0.134 µg/mL
same,LD50,Apis mellifera; dermal,> 100 µg/piece
same,LD50,"Apis mellifera; oral, unspecified",> 100 µg/piece
same,NOEC,Tagia sp.,≥ 1000 mg/kg
same,NOEC,Danio rerio,≥ 0.138 mg/L
same,NOEC,Hypoaspis aculeifer,1000 mg/kg
same,LC50,Rattus norvegicus,> 2000 mg/kg-day
same,LD50,"Colinus virginianus; acute, mortality",> 2000 mg/kg-day
same,NOEC,"Colinus virginianus; reproduction developmental, diet",≥ 111 mg/kg-day
